Test results from patent US10550388B2, “Targeting pleiotrophin signaling to limit high-grade glioma invasion” (The Board of Trustees of the Leland Stanford Junior …, priority 2017, dated 2020).

Tests used:
[1] = rodent models (Egorin et al. 2001); cited from earlier work
[2] = tested on: SU-DIPG-XIII FL cells; assay: Matrigel invasion assay (Boyden chamber) of DIPG cells; assay type: cell-based, human; settings: 72 hours; for DIPG invasion toward SVZ hNPC CM: inhibitor added to the cells in the top insert, dose curve, vehicle DMSO control
Experimental: To test for chemoattraction and invasion toward neural precursor cell conditioned media or another candidate chemoattractant, a single-cell suspension of 100,000 DIPG cells in Tumor Stem Media (TSM) base (with B27 (−A) and heparin, without growth factors) was seeded in the top inserts of BioCoat growth factor reduced Matrigel invasion chambers (Corning, Bedford, Mass.), after rehydration of the inserts. Chemoattractant media was added to the bottom of the chamber. All conditions were plated in triplicate. After 72 hours, media was aspirated, and the non-invading cells on top of the layer of Matrigel were scrubbed off. The invading cells were fixed in 4% paraformaldehyde and then stained with 0.1% crystal violet in 10% methanol in distilled water. The number of invading cells was quantified by the intensity of the crystal violet dye on the invading side of the Matrigel. The dye was collected in 10% acetic acid, and absorbance was measured at 595 nm.
To test the ROCK or HSP90 inhibitors in the Matrigel invasion assay, the inhibitors were added to the suspension of glioma cells in TSM base (with B27 (−A) and heparin) seeded in the top inserts at the appropriate concentrations, and neural precursor cell conditioned media was plated in the bottom chambers. The rest of the procedure was performed as described above.

[3] = tested on: SU-DIPG-XIII FL cells; assay: CellTiter-Glo cell viability assay; assay type: cell-based, human; settings: increasing doses of inhibitor; 72 hours
Experimental: To assess cell viability, 5,000 DIPG cells per well were seeded in base media or full growth media in a 96-well plate. Inhibitors were added at the appropriate concentrations. After 72 hours, CellTiter-Glo reagent 2.0 was added at a 1:1 ratio, and cells were lysed. Luminescence was measured after stabilization of signal for 10 minutes at room temperature.

[4] = tested on: SU-DIPG-XIII FL cells; assay: shRNA-expressing lentivirus injected into the SVZ of orthotopically xenografted mice; assay type: in vivo, NSG mice; settings: vs scrambled shRNA control; for DIPG cells invading the SVZ: 16 weeks following pontine xenograft
Experimental: NSG mice at age P34-36 were orthotopically xenografted with SU-DIPG-XIII frontal lobe CMV-GFP-luciferase cells, in a similar procedure to as previously described (Grasso et al., supra; Venkatesh et al. (2015) Cell 161, 803-816). Briefly, a single-cell suspension of SU-DIPG-XIII frontal lobe CMV-GFP-luciferase cells at passage 16-19 was prepared in sterile HBSS immediately before beginning the xenograft procedure. 600,000 cells in 3 μL were stereotactically injected into the pons of the left hemisphere of NSG mice, through a 31-gauge burr hole. Stereotactic coordinates used were: 1 mm lateral to midline, 0.8 mm posterior to lambda suture, and 5 mm deep. Cells were injected at a rate of 0.4 μL/min using a digital pump and a 31-gauge Hamilton syringe. After infusion of cells, the syringe needle was kept in place for 2 minutes, and then withdrawn manually at a rate of 0.875 mm/min to minimize the backflow of cells.
(§1) Mice used for shRNA lentivirus studies received shRNA-expressing lentivirus in the SVZ at P27-29 and DIPG cells in the left pons at P34-36. For lentiviral injections, 2 μL of shRNA-expressing lentivirus were stereotactically injected into the SVZ. Stereotactic coordinates used were: 1.3 mm lateral to midline, 0.1 mm posterior to bregma suture, and 2 mm deep. Virus was injected and the needle was withdrawn according to the same procedure as described above.
Mice were imaged using an IVIS Spectrum to ensure tumor engraftment and monitor tumor size. Mice were anesthetized under 1% isoflurane, intraperitoneally injected with luciferin (15 mg/kg), and imaged for bioluminescence every minute until the peak total flux was reached.
For quantification of DIPG invasion of the SVZ after knock down of targets in the SVZ, 5 NSG mice per group were injected with shRNA-expressing lentivirus in bilateral SVZs and orthotopically xenografted with SU-DIPG-XIII FL in the left pons. Mice were perfused for analysis 16 weeks after xenograft. A 1:6 series of coronal slices from each mouse brain was immunostained and imaged, and the number of GFP^+ HNA^+ glioma cells within 200 μm of the lateral ventricles in all slices containing lateral ventricles was manually counted.
For quantification of neural stem/precursor cells in the SVZ after knock down of PTN in the SVZ, a 1:6 series of coronal slices from each mouse was immunostained and imaged, and the number of Sox2^+ neural stem/precursor cells in a 20×Z-stack was manually counted. The density of Sox2^+ cells was calculated as cells/mm^3.

[5] = tested on: pleiotrophin; assay: Knockdown of pleiotrophin expression in the mouse SVZ; assay type: in vivo; settings: stereotactic injection into the mouse SVZ; vs scrambled shRNA control
Experimental: as §1
Mice were intraperitoneally injected with Avertin (tribromoethanol) for anesthesia, and then transcardially perfused with 20 mL of ice-cold PBS. Brains were dissected out and fixed in 4% paraformaldehyde in PBS overnight at 4° C., and were then transferred to 30% sucrose in PBS for cryoprotection. Brains were embedded in Tissue-Tek O.C.T. (Sakura, Torrance, Calif.). Brains from mice older than P10 were sliced into 40 μm coronal or sagittal sections using a sliding microtome (Microm HM450; Thermo Scientific, Waltham, Mass.). Brains from mice age P0 to P10 were sliced into 25 μm coronal sections using a cryostat (Leica Biosystems CM3050 S; 1058 Wetzlar, Germany). For immunohistochemistry, a 1 in 6 series of 25 μm or 40 μm sections was incubated in blocking solution (3% normal donkey serum, 0.3% Triton X-100 in TBS) at room temperature for 1 hour. […]

C=CCNC1=C2C[C@@H](C)C[C@H](OC)[C@H](O)[C@@H](C)/C=C(\C)[C@H](OC(N)=O)[C@@H](OC)/C=C\C=C(/C)C(=O)NC(=CC1=O)C2=O [17-AAG, tanespimycin, reference compound]
Brain penetration [1]: less than 1 μM
concentrations at which invasion toward SVZ hNPC CM is decreased ([2]; in vitro, inhibitor in the top insert): above 1 μM

CCn1c(-c2nonc2N)nc2cnc(Oc3cccc(NC(=O)c4ccc(OCCN5CCOCC5)cc4)c3)cc21 [GSK 269962A, reference compound]
cell viability of DIPG cells [3]: do not affect cell viability at sub-μM concentrations
DIPG invasion toward SVZ hNPC CM [2]: decreased DIPG invasion toward SVZ hNPC CM in a dose-dependent manner

CC1=C(C(=O)Nc2cc3cn[nH]c3cc2F)C(c2ccc(C(F)(F)F)cc2)CC(=O)N1 (stereo not drawn) [GSK 429286, reference compound]
cell viability of DIPG cells [3]: do not affect cell viability at sub-μM concentrations
DIPG invasion toward SVZ hNPC CM [2]: decreased DIPG invasion toward SVZ hNPC CM in a dose-dependent manner

sh-Ptn: lentivirus-expressed shRNA against mouse PTN, Sigma TRCNO000071676, SEQ ID NO: 8 (CCGGGCACAATGCTGACTGTCAGAACTCGAGTTCTGACAGTCAGCATTGTGCTTTTTG)
DIPG cells invading the SVZ [4]: fewer orthotopically xenografted GFP^+ HNA^+ SU-DIPG-XIII FL cells invaded the SVZ
DIPG cells invading the SVZ ([4]; listed as shRNA targeting Ptn): fewer DIPG cells invaded the SVZ
density of Sox2+ neural stem/precursor cells in the SVZ [4]: equivalent
tumor engraftment (bioluminescent flux) [4]: equivalent
density of Sox2+ neural stem/precursor cells in the SVZ ([4]; listed as Ptn shRNA): equivalent numbers of Sox2^+ NPCs
knockdown of pleiotrophin expression [5]: effective knockdown of pleiotrophin expression
